These results are taken from patent US7396848B1, “Neurotrophin production/secretion promoting agent” (Takeda Pharmaceutical Company Limited, priority 2000, dated 2008).

By melting point is commonly meant the temperature, or range, at which the solid turns liquid.

`Cc1cccc(Cl)c1CCCOc1oc(-n2ccnc2C)nc1-c1ccc(Cl)cc1` [Example 109, 5-[3-(2-chloro-6-methylphenyl)propyloxy]-4-(4-chlorophenyl)-2-(2-methyl-1-imidazolyl)oxazole] registered a melting point of 115 to 116 °C.

Molecule `Cc1cc(C)n(-c2nc(-c3ccc(Cl)cc3)c(CCCOc3ccccc3C)o2)n1` [Example 72, 4-(4-chlorophenyl)-2-(3,5-dimethyl-1-pyrazolyl)-5-[3-(2-methylphenoxy)propyl]oxazole] showed a melting point of 103 to 104 °C.

Take `Cc1nccn1-c1nc(-c2ccc(Cl)c(Cl)c2)c(CCCO)o1` [Example 119, 4-(3,4-dichlorophenyl)-2-(2-methyl-1-imidazolyl)-5-oxazolepropanol]: the melting point lay in the range of 140 to 141 °C.

As to `Cc1nccn1-c1nc(-c2ccc(C(F)(F)F)cc2)c(CCCO)o1` [Example 118, 2-(2-methyl-1-imidazolyl)-4-(4-trifluoromethylphenyl)-5-oxazolepropanol], the melting point lay within 127 to 129 °C.

In turn, `COC(=O)CCc1oc(-n2ccnc2C)nc1-c1ccc(Cl)c(Cl)c1` [Example 117, methyl 4-(3,4-dichlorophenyl)-2-(2-methyl-1-imidazolyl)-5-oxazolepropionate] had a melting point of 116 to 117 °C.

For the molecule `CCOC(=O)C1CCN(c2nc(-c3ccc(Cl)cc3)c(CCCOc3ccccc3OC)o2)CC1` [Example 40, ethyl N-[4-(4-chlorophenyl)-5-[3-(2-methoxyphenoxy)propyl]-2-oxazolyl]isonipecotate], the melting point was 80 to 81 °C.

`Cc1nccn1-c1nc(-c2ccc(Cl)cc2)c(CCCOc2ccccc2CCCO)o1` [Example 93, 4-(4-chlorophenyl)-5-[3-(2-(3-hydroxypropyl)phenoxy)propyl]-2-(2-methyl-1-imidazolyl)oxazole] yielded a melting point of 119 to 120 °C.

In turn, `CCCCCCCCCCCc1nccn1-c1nc(-c2ccc(Cl)cc2)c(CCCOc2ccccc2OC)o1` [Example 84, 4-(4-chlorophenyl)-5-[3-(2-methoxyphenoxy)propyl]-2-(2-undecyl-1-imidazolyl)oxazole] displayed a melting point of 53 to 54 °C.

`Cc1ccccc1OCCCc1sc(-n2ccnc2C)nc1-c1ccc(Cl)cc1` [Example 96, 4-(4-chlorophenyl)-2-(2-methyl-1-imidazolyl)-5-[3-(2-methylphenoxy)propyl]thiazole] gave a melting point of 112 to 113 °C.

The molecule `CCc1nccn1-c1nc(-c2ccc(Cl)cc2)c(CCCOc2ccccc2OC)o1` [Example 57, 4-(4-chlorophenyl)-2-(2-ethyl-1-imidazolyl)-5-[3-(2-methoxyphenoxy)propyl]oxazole] returned a melting point of 78 to 79 °C.

The molecule `Cc1ccccc1OCCCc1oc(-n2ccnc2)nc1-c1ccc(Cl)cc1` [Example 55, 4-(4-chlorophenyl)-2-(1-imidazolyl)-5-[3-(2-methylphenoxy)propyl]oxazole] displayed a melting point of 113 to 114 °C.

With `Cc1nccn1-c1nc(-c2ccc(Cl)s2)c(CCCCO)o1` [Example 99, 4-(5-chloro-2-thienyl)-2-(2-methyl-1-imidazolyl)-5-oxazolebutanol], the melting point is 77 to 79 °C.

Turning to `CCOC(=O)c1nccn1-c1nc(-c2ccc(Cl)cc2)c(CCCOc2ccccc2OC)o1` [Example 69, ethyl 1-[4-(4-chlorophenyl)-5-[3-(2-methoxyphenoxy)propyl]-2-oxazolyl]imidazole-2-carboxylate], the melting point was in the range of 90 to 91 °C.

`COc1ccccc1OCCCc1oc(-n2cnc(-c3ccccc3)c2-c2ccccc2)nc1-c1ccc(Cl)cc1` [Example 42, 4-(4-chlorophenyl)-2-(4,5-diphenyl-1-imidazolyl)-5-[3-(2-methoxyphenoxy)propyl]oxazole] had a melting point of 118 to 119 °C.

In turn, `CCCc1nccn1-c1nc(-c2ccc(Cl)cc2)c(CCCOc2ccccc2OC)o1` [Example 83, 4-(4-chlorophenyl)-5-[3-(2-methoxyphenoxy)propyl]-2-(2-propyl-1-imidazolyl)oxazole] came in with a melting point of 89 to 90 °C.

As to `Cc1nccn1-c1nc(-c2ccc(Cl)cc2)c(CCCCO)s1` [Example 24, 4-(4-chlorophenyl)-2-(2-methyl-1-imidazolyl)-5-thiazolebutanol], the melting point fell in the range of 98 to 99 °C.

`CCOC(=O)CCCc1sc(N)nc1-c1ccc(Cl)cc1` [Example 22, ethyl 2-amino-4-(4-chlorophenyl)-5-thiazolebutanoate] showed a melting point of 114 to 115 °C.

Molecule `Cc1nccn1-c1nc(-c2ccc(F)cc2)c(CCCCO)o1` [Example 102, 4-(4-fluorophenyl)-2-(2-methyl-1-imidazolyl)-5-oxazolebutanol] showed a melting point of 97 to 98 °C.

In turn, `Cc1nccn1-c1nc(-c2ccc(Cl)cc2)c(CCCOc2ccccc2O)o1` [Example 61, 4-(4-chlorophenyl)-5-[3-(2-hydroxyphenoxy)propyl]-2-(2-methyl-1-imidazolyl)oxazole] gave a melting point of 110 to 111 °C.

Turning to `Cc1nccn1-c1nc(-c2ccc(Cl)cc2)c(CCCOc2ccccc2CCC(=O)O)o1` [Example 94, 3-[2-[3-[4-(4-chlorophenyl)-2-(2-methyl-1-imidazolyl)-5-oxazolyl]propoxy]phenyl]propionic acid], the melting point was 184 to 185 °C.

Molecule `CCc1nccn1-c1nc(-c2ccc(Cl)cc2)c(CCCOc2ccccc2C)o1` [Example 56, 4-(4-chlorophenyl)-2-(2-ethyl-1-imidazolyl)-5-[3-(2-methylphenoxy)propyl]oxazole] returned a melting point of 91 to 92 °C.

Turning to `COc1ccccc1OCCCc1oc(N2CCOCC2)nc1-c1ccc(Cl)cc1` [Example 39, 4-(4-chlorophenyl)-2-(4-morpholinyl)-5-[3-(2-methoxyphenoxy)propyl]oxazole], the melting point was in the range of 81 to 82 °C.

The molecule `COC(=O)CCc1oc(-n2ccnc2C)nc1-c1ccc(C(F)(F)F)cc1` [Example 116, methyl 2-(2-methyl-1-imidazolyl)-4-(4-trifluoromethylphenyl)-5-oxazolepropionate] displayed a melting point of 94 to 95 °C.

`Cc1cc(O)ccc1OCCCc1oc(-n2ccnc2C)nc1-c1ccc(Cl)cc1` [Example 113, 4-[3-[4-(4-chlorophenyl)-2-(2-methyl-1-imidazolyl)-5-oxazolyl]propyloxy]-3-methylphenol] yielded a melting point of 175 to 176 °C.
